# From ChEMBL document CHEMBL3507680, “University of Dundee, Gates Library screen for HepG2 cell viability”
# Assay: Human HepG2 cell viability assay in 384 well format
# Type: toxicity, cell-based
# Design: dose 125 nL, time 70.5 hour; concentration not given beside the values
# Conditions: HepG2 cells, read-out: Inhibition
row,Structure (SMILES),cytotoxicity at 70.5 h [%]
1,O=C(CCCn1cncn1)NC1(c2cccc(Br)c2)CC1,4.56
2,CC(=O)c1cc(CN2C[C@@H](N(C)C)[C@H](C(C)C)C2)cs1,8.63
3,Cc1noc(C)c1-c1cncc(C2CCCN2Cc2cc[nH]n2)n1 (centres undefined),-3.25
4,Cc1nnc(CCNC(=O)c2coc(CN3CCOCC3)c2)s1,1.37
5,O=C(NCC(F)F)c1ccc(S(=O)(=O)NCCc2cn[nH]c2)cc1,-8.61
6,COCCNC(=O)c1cccnc1Sc1cc(OC)ccc1OC,11.2
7,CSCCC(Nc1nc(C)cc(C)n1)C(=O)NC1CCCC1 (centres undefined),-12.6
8,Cc1occc1C(=O)N1CCN2C[C@H](Oc3cccnc3)C[C@H]2C1,0.855
9,CN(CCc1ccccn1)C(=O)Nc1cccnc1N1CCCC1,11.3
10,CC(C)(C)OC(=O)N1CCC[C@H](NCC2=CCCOC2)C1,-9.87
11,CCC(NC(=O)CNCC(F)(F)F)c1cc(F)ccc1F (centres undefined),-6.5
12,CCN1C[C@H]2CCN(C(=O)NC)CC[C@H]2S1(=O)=O,49
13,Cn1ccc(C2CCCCN2C(=O)c2cccc(Cn3cccn3)c2)n1 (centres undefined),8.89
14,Cc1cc(C(=O)N2CC[C@H](OCC3CC3)[C@@H]2Cc2cccnc2)no1,-4.43
15,COc1c(C)cnc(CN(C)C(=O)c2cccc(NC(N)=O)c2)c1C,-2.3
16,Cn1cc(C2=NOC(C(=O)NC3(c4ccccc4)CCCC3)C2)cn1 (centres undefined),-3.59
17,Cc1nn(CC(C)C)c(N(C)C)c1CNCCCNS(C)(=O)=O,31.6
18,Cc1cccc(CN2CCc3onc(CO)c3C2)n1,5.71
19,CN(C)CC1(O)CCCN(C(=O)Cn2ccc3ccccc32)CC1 (centres undefined),29.7
20,COCCN1CC(C(=O)N(C)Cc2ccc(Cl)s2)CC1=O (centres undefined),-10.5
21,Cn1nc(C#N)c2c1CN(C(=O)c1c[nH]cn1)CCC2,-7.05
22,CSc1ccccc1C(=O)N1CCN(C)C2(CCC(=O)N(C)CC2)C1 (centres undefined),-14.6
23,CC(C(=O)Nc1ncccn1)N1CCCN(c2nccs2)CC1 (centres undefined),-13.8

row,Structure (SMILES),cytotoxicity at 70.5 h [%]
1,O=C(C1CCOCC1)N1CC[C@H](O)[C@@H]1Cc1cccnc1,-0.0587
2,Cc1cccc(-c2nc(CN3CCOCS3(=O)=O)c(C)o2)c1,-6.34
3,CC1CN(c2ncnc3sccc23)CCN1c1nccs1 (centres undefined),-0.696
4,COCC(Nc1nc(N(C)C)nc2c1CCNCC2)c1ccccn1 (centres undefined),4.09
5,COC(=O)c1cccc2nc([C@H]3CCN(Cc4ccccc4F)C3)oc12,-6.68
6,CN(C(=O)Cc1ccccc1F)C1CCN(c2ccccn2)CC1,-3.14
7,CSCCCN1C[C@H](NC(=O)c2ccc(C#N)nc2)[C@@H](C2CC2)C1,-0.265
8,Cc1cnn(CC2CCCN2CC(=O)Nc2cc(C)on2)c1 (centres undefined),0.558
9,CS(=O)(=O)Cc1ccc(NC(=O)Cc2cccnc2)cc1F,-4.71
10,COc1cc(NC(=O)NCC2CCCO2)cc(OC)c1 (centres undefined),16.9
11,CC(=O)Nc1cc(CN(C)C)ccc1C,-6.9
12,COCCn1cnnc1CCn1ccnc1-c1ccccc1Cl,5.9
13,CN(Cc1ncc[nH]1)CC(c1cccs1)N1CCOCC1 (centres undefined),17.4
14,O=C(NCc1ccccc1OCC1CC1)C1CCOC1 (centres undefined),1.2
15,Cc1cnc(N2CCC3(CCC(C(=O)NC(C)C)C3)CC2)nc1 (centres undefined),-7.58
16,CCN(CC1CCOC1)S(=O)(=O)Cc1ccccc1Cl (centres undefined),-6.21
17,CCCN(Cc1cnn(C)c1)CC1CCCN(S(C)(=O)=O)C1 (centres undefined),23.4
18,Cc1ccc(Oc2ncccc2C(=O)N(C)CC2OCCO2)c(C)c1,-4.31
19,N#Cc1cc(NC(=O)c2cscn2)ccc1N1CCC(O)CC1,-4.48
20,COc1ccc(Cl)cc1CN(C)C(=O)CN1C(=O)CCC1C (centres undefined),-9.27
21,CCS(=O)(=O)NC1CCCN(Cc2ccn(C)c(=O)c2)C1 (centres undefined),-9.02
22,COCC1c2nnn(CC3CC3)c2CCN1C(=O)c1cc(C)on1 (centres undefined),-12.7
23,CN(CCNC(=O)N1CCN(Cc2ccon2)CC1)C1CCCC1,-1.48

row,Structure (SMILES),cytotoxicity at 70.5 h [%]
1,c1nc2c(c(C3CC3)n1)CCN(Cc1ccoc1)CC2,18.1
2,CCOC1CCN(C(=O)NCc2cccc(-n3cccn3)c2)CC1,-5.08
3,Cc1noc(C(C)C)c1C(=O)NCCN1CCOCC1,-17.9
4,CC(NC(=O)N1CCCCCC1)c1ccc(S(N)(=O)=O)cc1 (centres undefined),-7.46
5,CS(=O)(=O)N1CCc2sc(C(=O)NCc3ccncc3)cc21,-7.65
6,O=C(CCCNc1ncccn1)Nc1cc(C(F)(F)F)c[nH]c1=O,-2.93
7,CN1CCCCC(C2CCN(S(=O)(=O)c3cn(C)cn3)CC2)C1=O (centres undefined),0.674
8,CC(C)n1ccnc1CN1CCCN(C(=O)c2nccnc2N)CC1,-16.3
9,COc1c(CNCCc2c[nH]c3ccccc23)c(C(C)C)nn1C,2.12
10,O=C(CC1CCCCC1)N1CCC(c2ncc3c(n2)CCNC3)CC1,-7.09
11,COc1cc(C(C)NCc2c[nH]nc2C)ccc1OCCO (centres undefined),7.95
12,CCOC(=O)N1CCN(c2nc(NCCO)c3ccccc3n2)CC1,-9.59
13,NC(=O)CC1CCN(C(=O)NCc2ccccc2-n2cccn2)CC1,-1.19
14,O=C(CN1CCN(C(=O)c2ccccc2)CC1)Nc1ccc(Br)cn1,-8.87
15,CCC(=O)Nc1cc(Br)cn(C)c1=O,23.5
16,Cc1ccccc1Cn1nnc2cc3c(cc2c1=O)OCCO3,-9.38
17,O=C(Cc1ccc2c(c1)OCCO2)NC1CC1,0.821
18,Cc1cnn(CC2CCCN2C(=O)c2cnc(-c3ccco3)s2)c1 (centres undefined),-9.06
19,CCn1cc(NC(=O)CN2C(=O)CC(C)(C)c3ccccc32)cn1,-4.43
20,COC(=O)C(O)C1CCN(CCc2ccc(C)cc2)CC1 (centres undefined),9.49
21,CCc1ccc(S(=O)(=O)N2CC3(COC(C)(C)OC3)C2)s1,14.1
22,COC(=O)[C@@H]1C[C@@H](NC(=O)CN2C(=O)N(C)Cc3ccccc32)CN1C,-3.77
23,Cc1noc(C)c1CCC(=O)N1CCOCC1CCc1cnccn1 (centres undefined),14

row,Structure (SMILES),cytotoxicity at 70.5 h [%]
1,Cn1ncc2c(NCCCOc3cccnc3)nc(C3CCCC3)nc21,16.2
2,CCOCC1CN(C(=O)c2ccoc2)Cc2nn(C)cc21 (centres undefined),-6.29
3,Cc1ccsc1CN1C[C@@H]2COC[C@]2(CNC(=O)c2ccco2)C1,-6.31
4,CC(NC(=O)CCNC(=O)c1ccoc1)c1ccccc1 (centres undefined),-7.29
5,O=C(CCc1nnc2ccccn2c1=O)NCc1cccnc1,-14.8
6,CCN(Cc1ccncc1)C(=O)c1cn(CCCc2ccccc2)nn1,-12.5
7,c1cnc2c(c1)cc(C1CCOCC1)n2CCN1CCOCC1,-11.3
8,O=C(Cc1ccsc1)N1C[C@@H]2COC[C@]2(COCc2cccnc2)C1,-0.0283
9,CCOCCNC(=O)c1cnc(Sc2nccn2C)c(Cl)c1,2.36
10,O=C(c1cccnc1)N1CCOC2(COCCN(c3cncnc3)C2)C1 (centres undefined),-9.01
11,CC(C#N)CNS(=O)(=O)c1ccc(F)c(Br)c1 (centres undefined),-7.42
12,CN1CCN(c2ccc(NCc3ccc(OC(F)(F)F)cc3)cn2)CC1,-11.2
13,CC(NC(=O)CSCC(N)=O)c1ccccc1Oc1ccccc1 (centres undefined),16.5
14,O=C1CCCCN1CCCNCc1cnc(C2CCC2)s1,0.195
15,O=C(NCCC1CCN(CC(F)(F)F)CC1)C1COCCO1 (centres undefined),0.242
16,C[S+]([O-])c1nncn1CC(=O)c1ccc(Cl)c(Cl)c1 (centres undefined),-3.69
17,CNC(=O)CN1CCOCC2(CCCN(Cc3ccsc3)C2)C1 (centres undefined),-19.5
18,NC(=O)N1C[C@@H]2CN(C(=O)c3ccco3)C[C@@H]2C1,-7.36
19,O=C(N1CCCC1)N1CC[C@H]2OCC[C@@]2(COc2ncccc2F)C1,-1.3
20,CN(C)C1(CNC(=O)C2CCCN2Cc2ccc(F)cc2)CCOCC1 (centres undefined),6.73
21,Cc1ccc(S(=O)(=O)N2CCCC3(CCCN3S(C)(=O)=O)C2)cc1F (centres undefined),0.261
22,CNC(=O)CN1CCN(C(=O)Nc2ccc(Cl)cc2F)CC1,-1.72
23,O=C(c1cccc(F)c1Cl)N(CCO)CC1CC1,-1.98

row,Structure (SMILES),cytotoxicity at 70.5 h [%]
1,CS(=O)(=O)c1ccc(OCCNCc2cccc(Cl)c2)cc1,23.8
2,C[C@H](NC(=O)C1CCCC1)c1nc2cc(-c3ccc(F)cc3)ncn2n1,4.97
3,Cc1nc(CN(C)C2CCN(Cc3nnc(C4CC4)o3)C2)no1 (centres undefined),2.48
4,CN1CCN(C2COC3(CCN(Cc4ccsc4)CC3)C2)CC1 (centres undefined),-8.09
5,CN(C)C(CNC(=O)c1cc2c([nH]c1=O)CCCC2=O)c1ccsc1 (centres undefined),-2.41
6,CCNc1ncc(C(=O)NCc2csc(-c3ncccn3)n2)cn1,3.46
7,CC(=O)Nc1ccc(CNc2ccn(Cc3ccccc3)n2)cc1,-3.05
8,Cc1ccc(C(=O)N2CCN3C[C@H](Oc4cncnc4)C[C@H]3C2)cn1,-0.158
9,Cc1cc(C)n(C2CN(c3nc(N)nc4c3CCCC4)C2)n1,-16.5
10,Fc1cnc(N2CC[C@@H]3CN(Cc4ccncc4)CCO[C@@H]3C2)nc1,7.83
11,Cn1cc(N2C(=O)CC[C@@H]3[C@H]2CCN3C(=O)c2cscn2)cn1,-10.2
12,Cn1c(Cn2ccnc2)nnc1C1CCN(Cc2cccnc2N)CC1,-9.06
13,COc1ccc2c(c1)CC(C1CCOCC1)N(C(=O)c1cnccn1)C2 (centres undefined),0.645
14,COCCC(=O)N1CCC2(CN(Cc3cccc(Cl)c3)C2)C1,33.3
15,Cc1cncnc1C1CCN(CC(N)=O)CC1,-4.96
16,COC(=O)CN1CCC(C(=O)c2cc(F)ccc2F)CC1,-3.39
17,Cc1ccc(C)n1C(C)C(=O)N1CCCN(Cc2cscn2)CC1 (centres undefined),-0.61
18,O=C(Nc1cnc2n1CCCC2)c1cccc(NC(=O)C2CCCC2)c1,-8.35
19,CC[C@H](Nc1nc(C(C)C)nc2c1cnn2C)c1ccccc1,-8.04
20,CC(=O)N1CCC(CSCc2ccco2)CC1,12.9
21,OCCn1nccc1C1CCN(CCCOc2ccc(F)cc2)CC1,-1.62
22,NC(=O)C1CCCN1Cc1cccc(NC(=O)c2cccs2)c1 (centres undefined),2.36
